Data set [1] deals with Mdx mice. Put plainly: Histology (H&E and picrosirius red staining) of quadriceps, PMO and CAT-1004 efficacy study in Mdx mice. The class given is in vivo, mouse. The conditions noted are these: 4 weeks treatment, M23D PMO 40 mg/kg IV weekly or CAT-1004 1% in diet, compared to Mdx mice treated with saline. The source says:
Wild-type (WT) (C57BL/10ScSn/J) and Mdx (C57BL/10ScSn-Dmd^mdx/J) mice were used to test the efficacy of the M23D PMO (AVI-4225) in combination with CAT-1004. 5-week old mice were acquired from Jackson Labs and acclimated for one-week. The treatment duration was 4 weeks and began when the mice were 6 weeks of age. Mice were divided into the following five treatment groups, each with N=12: (1) wild-type mice treated with saline, (2) Mdx mice treated with saline, (3) Mdx mice treated with CAT-1004, (4) Mdx mice treated with the M23D PMO, and (5) Mdx mice treated with the M23D PMO in combination with CAT-1004. Mice were dosed weekly with M23D PMO (AVI-4225) at 40 mg/kg by IV injection and treated with CAT-1004 (1%) in their diet. […] Food consumption was closely monitored and the feed was changed twice per week. […]
To assess the effectiveness of a combination treatment of an exon skipping antisense oligonucleotide and an NF-Kb inhibitor in Duchenne muscular dystrophy, M23D PMO and CAT-1004 were utilized in the Mdx mouse model. The effect on inflammation and fibrosis was determined by analyzing samples of muscle taken from the quadriceps, of (1) wild-type mice treated with saline, (2) mdx mice treated with saline, (3) mdx mice treated with CAT-1004, (4) mdx mice treated with the M23D PMO, and (5) mdx mice treated with the M23D PMO in combination with CAT-1004. […]

Data set [2] deals with mouse dystrophin exon 23 pre-mRNA. Put plainly: RT-PCR analysis for exon 23 skipping in Mdx mice. It is filed as in vivo. The conditions noted are these: muscle of quadriceps, diaphragm and heart of Mdx mice; 4 weeks treatment. The source says: (§1) Wild-type (WT) (C57BL/10ScSn/J) and Mdx (C57BL/10ScSn-Dmd^mdx/J) mice were used to test the efficacy of the M23D PMO (AVI-4225) in combination with CAT-1004. 5-week old mice were acquired from Jackson Labs and acclimated for one-week. The treatment duration was 4 weeks and began when the mice were 6 weeks of age. Mice were divided into the following five treatment groups, each with N=12: (1) wild-type mice treated with saline, (2) Mdx mice treated with saline, (3) Mdx mice treated with CAT-1004, (4) Mdx mice treated with the M23D PMO, and (5) Mdx mice treated with the M23D PMO in combination with CAT-1004. Mice were dosed weekly with M23D PMO (AVI-4225) at 40 mg/kg by IV injection and treated with CAT-1004 (1%) in their diet. All non-CAT-1004 animals were fed a normal chow control diet and all non-M23D PMO animals were given weekly IV injections of saline. Food consumption was closely monitored and the feed was changed twice per week. Mice were sacrificed at 10 weeks of age (4 weeks post-first dose). The quadriceps, diaphragm, and heart were harvested from each of the respective treatment groups.
For exon skipping analysis, quadriceps, diaphragm, and heart tissue samples were homogenized. […] Exon 23 skipping was determined by Caliper imaging. […] Percentage of skipping was determined using the formula: % skipping=skipped molarity/(unskipped+skipped molarity)×100%. […]

Another data set deals with dystrophin protein. Put plainly: Western blot analysis of dystrophin protein levels in Mdx mice. It is filed as in vivo, mouse. The conditions noted are these: quadriceps, diaphragm and heart of Mdx mice, combination compared to M23D PMO monotherapy.
From the text: as §1
Dystrophin protein was analyzed by Western blot analysis, and immunohistochemistry. […] Total protein concentration of the protein lysates were measured using Pierce™ BCA Protein Assay Kit (ThermoFisher Scientific catalog #23225). […]
Background: In western blotting, separated proteins are transferred to a membrane and probed.

For data set [3] the following is noted: phase I clinical program, adults, placebo-controlled studies; cited from earlier work.
A further data set concerns NF-κB. The conditions noted are these: cited from earlier work.
The test system of a further data set is NF-κB p65. The conditions noted are these: cited from earlier work.
The test system of data set [4] is golden retriever muscular dystrophy (GRMD) dog. The conditions noted are these: cited from earlier work; for phenotype: GRMD dog, long-term treatment; for diaphragm function: dog DMD model.
The subject of data set [5] is Mdx mice. As to conditions: cited from earlier work; for inflammation and fibrosis: mdx mice (Hammers et al.); for phenotype: mdx mouse, long-term treatment; for diaphragm function: mouse DMD model (mdx).
Another data set relates to cNF-κB. As to conditions: in vitro; cited from earlier work.
Data set [6] deals with ryanodine receptor. The conditions noted are these: patient cells; cited from earlier work.
In data set [7] the test system is ryanodine receptor. As to conditions: mouse model of DMD; cited from earlier work.
For data set [8] the following is noted: cited from earlier work.
Another data set concerns dystrophin. The experiment in a line: Immunohistochemical analysis of dystrophin expression in quadriceps of Mdx mice. It is filed as in vivo, mouse. The conditions noted are these: compared to Mdx mice treated with saline or CAT-1004 monotherapy.
From the text: as §1
For immunohistochemistry, frozen quadriceps sections were serially cut and mounted on slides using a cryostat. Sections were rehydrated in PBS and then blocked with Mouse on Mouse (MOM) blocking buffer for 1 hour at room temperature. […]

In data set [9] the test system is exon 51 of dystrophin pre-mRNA. The conditions noted are these: normal human skeletal muscle cells or muscle cells from DMD patients; RT-PCR and Western blot; cited from earlier work.
The subject of another data set is human DMD transcript. The conditions noted are these: hDMD mouse model; cited from earlier work.
For another data set, the system named is juvenile rats. The conditions noted are these: T cell-dependent antibody responses, immunophenotyping of peripheral blood T- and B-cell subpopulations; cited from earlier work.

“Also recorded” adds a separate entry of the source. Where two headings read alike, the source gives them in different places. {TEG} = triethylene glycol tail moiety

Consider `CC/C=C\C/C=C\C/C=C\C/C=C\C/C=C\C/C=C\CCC(=O)NCCNC(=O)c1ccccc1O` [CAT-1004, N-(2-[(4Z,7Z,10Z,13Z,16Z,19Z)-docosa-4,7,10,13,16,19-hexaenamido]ethyl)-2-hydroxybenzamide], for which, in the data set with Mdx mice [1], the “inflammation and fibrosis in quadriceps” value was “reduction of inflammation and fibrosis”. Also, the “exon 23 skipping” value in [2] was “neither exon skipping nor dystrophin production were observed”. Further, the dystrophin production entry in the data set on dystrophin protein is “neither exon skipping nor dystrophin production were observed”. Further, in data set [3], the safety and tolerability result is given as “safe, well tolerated”. Also, in the data set on NF-κB (healthy adult humans, compared to placebo or salicylate and omega-3 DHA as separate molecules), the “levels of the p65 subunit of NF-κB” value is given as “lowers levels of the p65 subunit of NF-κB”. In addition, the “biomarkers of inflammation in whole blood” value in the data set on NF-κB (humans) was “decrease of biomarkers of inflammation”. For the same compound, in the data set with NF-κB (phase I clinical program in adults, listed as Edasalonexent), the “activated NF-κB pathways” value is “inhibited activated NF-kB pathways; also recorded: inhibited activated NF-κB pathways”. In addition, in the data set on NF-κB p65 (dog model of DMD), the NF-κB activity result is recorded as “decreases NF-κB activity”, the “binding of the p65 subunit to DNA” value is “reduced binding of the p65 subunit to DNA” and the “secretion of the inflammatory mediator TNF-α” value is given as “reduced secretion of the inflammatory mediator TNF-α”. Moreover, the “NF-κB p65-dependent inflammatory responses and downstream proinflammatory genes modulated by p65” value in the data set on NF-κB p65 (golden retriever DMD model) is given as “significantly inhibit”. In addition, in data set [4], the phenotype entry is on record as “improves the phenotype” and the diaphragm function result is on record as “improved diaphragm function”. Besides, in the data set with Mdx mice [5], the inflammation and fibrosis entry is “reduced inflammation and fibrosis”; the phenotype entry is on record as “improves the phenotype”; the diaphragm function result is “improved diaphragm function”. For the same compound, the cumulative run distance result in the data set with Mdx mice [5] (mdx mice, long-term studies) is reported as “increased cumulative run distance”. In the data set with Mdx mice [5] (mdx mice), the exercise endurance result is reported as “increased exercise endurance”; the “muscle degeneration and inflammation” value was “reduce muscle degeneration and inflammation”; the muscle function result is reported as “preserve muscle function”; the muscle regeneration result is “enhance muscle regeneration”. Moreover, in the data set with cNF-κB, the cNF-κB activation entry was “inhibit cNF-κB activation in vitro”.

For `CC/C=C\C/C=C\C/C=C\C/C=C\C/C=C\CCCC(=O)NCCNC(=O)c1ccccc1O` [CAT-1041], in [4], the phenotype result is recorded as “improves the phenotype” and the diaphragm function result is “improved diaphragm function”. In the data set on Mdx mice [5], the inflammation and fibrosis entry is “reduced inflammation and fibrosis”; the phenotype result is given as “improves the phenotype”; the diaphragm function result is reported as “improved diaphragm function”. In addition, in the data set with Mdx mice [5] (mdx mice, long-term studies), the muscle fibrosis result is “reduces muscle fibrosis” and the skeletal muscle weight entry is given as “increases skeletal muscle weight”. In the data set with Mdx mice [5] (mdx mice), the exercise endurance entry is on record as “increased exercise endurance” and the muscle function entry is given as “preserves muscle function”. For the same compound, the cNF-κB activation entry in the data set with cNF-κB is recorded as “inhibit cNF-κB activation in vitro”.

For `O=C1CN(/N=C/c2ccc(-c3ccc([N+](=O)[O-])cc3)o2)C(O)=N1` [dantrolene], the antisense-mediated exon skipping entry in the data set with ryanodine receptor [6] and in the data set with ryanodine receptor [7] was “enhance antisense-mediated exon skipping” throughout.

Regarding G-2-beta-cyclodextrin, in data set [8], the solubility in water is listed as 147 % (w/v).

On to “M23D PMO: PMO hybridizing to mouse dystrophin exon 23 pre-mRNA, TEG tail at 5′ end, sequence GGCCAAACCTCGGCTTACCTGAAAT (SEQ ID NO: 30) (antisense GGCCAAACCTCGGCTTACCTGAAAT; all phosphorodiamidate morpholino (PMO), 5' {TEG})”, for which, in the data set with Mdx mice [1], the “inflammation and fibrosis in quadriceps” value was “reduction of inflammation and fibrosis”. In data set [2], the “exon 23 skipping” value is listed as “Exon skipping was observed”. Besides, in the data set on dystrophin, the “dystrophin expression (immunohistochemistry)” value is listed as “increase in dystrophin expression”.

eteplirsen: in data set [9], the “exon 51 skipping” value is reported as “potent inducer of exon 51 skipping”. In addition, the “exon 51 skipping in vivo” value in the data set on human DMD transcript is “confirmed in vivo”. For the same compound, the “effect on the immune response” value in the data set on juvenile rats is on record as “no adverse effect on the immune response”.

In the case of triacetyl-beta-cyclodextrin, the “solubility in water (in words)” value in data set [8] is “insoluble”.
